Series [1] in a line: pharmacokinetics/toxicokinetics in dogs. The settings on record: dog, in vivo.
A short description of series [2]: solubility in water, ONC-201 dihydrochloride salt vs free base. It counts as physicochemical. The protocol:
(§1) Dihydrochloride salts of compounds within the class of impiridones of which ONC-206 is a member, achieve unexpected technical effects. […] In addition, after two months at 25° C. and at 40° C., the percentage of impurities in the dihydrochloride salt is not detected and 3%, respectively; while for the free base the corresponding the percentage of impurities is 20% and 24%, respectively. This technical effect appears to extend to the class of impiridones.

Series [3] in a line: stability: percentage of impurities after two months. It counts as physicochemical. The protocol: as §1
The test system of series [4] is diffuse midline glioma, H3 K27M-mutant. The settings on record: patients with DMG H3K27M; cited from earlier work.
The next series concerns high grade gliomas. Conditions: advanced cancer patients; cited from earlier work.
The next series relates to endometrial cancer. The settings on record: advanced cancer patients; cited from earlier work.

Counter-ions that a name gives are not always drawn.

For orientation: half-life means the time needed for the level to fall by half in the phase considered. A lower half-life goes with fast loss. As usually defined, the CL/F is the apparent clearance, not corrected for the fraction that reaches the circulation. The Vd/F is the volume of distribution divided by bioavailability. As to `O=C1C2=C(CCN(Cc3ccccc3)C2)N2CCN=C2N1Cc1ccc(F)cc1F` [ONC206, 7-benzyl-4-(2,4-difluorobenzyl)-2,4,6,7,8,9-hexahydroimidazo[1,2-a]pyrido[3,4-e]pyrimidin-5(1H)-one], the half-life in series [1] (beagle) is 0.7 to 7.1 h. Moreover, in series [1] (both, Beagle, po), the CL/F was in the range of 83.3 to 1680 mL/min/kg, the Vd/F was in the range of 25.2 to 259 L/kg and the half-life lay in the range of 0.7 to 7.1 h.

For the molecule `Cc1ccccc1CN1C(=O)C2=C(CCN(Cc3ccccc3)C2)N2CCN=C12` [ONC-201 free base, 7-benzyl-4-(2-methylbenzyl)-2,4,6,7,8,9-hexahydroimidazo[1,2-a]pyrido[3,4-e]pyrimidin-5(1H)-one], in series [2], the solubility in water result was “less than 1 mg/mL”. Besides, the percentage of impurities in series [3] (after two months at 25° C.) is reported as 20%; in series [3] (after two months at 40° C.), 24%.

Take `Cc1ccccc1CN1C(=O)C2=C(CCN(Cc3ccccc3)C2)N2CCN=C12` [ONC201, 7-benzyl-4-(2-methylbenzyl)-2,4,6,7,8,9-hexahydroimidazo[1,2-a]pyrido[3,4-e]pyrimidin-5(1H)-one]: the “tumor response in patients” value in series [4] is on record as “induced durable tumor regressions”. The RANO response result in the series with high grade gliomas is given as “several patients achieved a RANO response”. In addition, in the series on endometrial cancer, the “PFS compared to historical control” value is listed as “several patients experienced prolonged PFS”.

As for `Cc1ccccc1CN1C(=O)C2=C(CCN(Cc3ccccc3)C2)N2CCN=C12` [ONC-201 dihydrochloride salt, 7-benzyl-4-(2-methylbenzyl)-2,4,6,7,8,9-hexahydroimidazo[1,2-a]pyrido[3,4-e]pyrimidin-5(1H)-one], in series [2], the solubility in water result was “greater than 50 mg/mL”. The percentage of impurities result is listed as “not detected” in series [3] (after two months at 25° C.) and 3% in series [3] (after two months at 40° C.).

The values are drawn from patent publication US20240238297A1, “USES AND METHODS FOR RECURRENT PRIMARY CNS NEOPLASMS” (CHIMERIX, INC., priority 2021, published 2024).
